Measured values reported in paper PMC9833666, “Designing and identifying β-hairpin peptide macrocycles with antibiotic potential” (Science Advances, 2023).
Like-named read-outs stand apart in the source and are kept apart here. Bridge positions count the residues as written; N and C are the ends. Peptide text beside a SMILES is read from it.

What was measured:
[1] = system: Acinetobacter baumannii AB5075; conditions: for AB5075 MIC FBS: 100% fetal bovine serum; for AB5075 MIC MH: Mueller-Hinton
Experimental: MICs were performed by a modifiedClinical and Laboratory Standards Institute) procedure. […] Separately, E. coli W3110 or A. baumannii AB5075 was grown overnight in 5 ml of standard MH at 37°C. Cells from these cultures were diluted to a concentration of 5 × 10^5 to 6 × 10^5 cells/ml in either standard MH, MHII, RPMI, or fetal bovine serum, and 90 μl was added to each well of the 96-well plate containing diluted peptide. Plates were wrapped twice in parafilm and incubated at 37°C for 18 to 24 hours. Wells were examined by eye against wells with no bacteria for signs of growth. MICs were reported as the minimum concentration with no observable growth. In cases where triplicate samples differed, the concentration supported by the median of the three replicates was reported. […]
For consistency, all SynCH peptides were resuspended at 10 mg/ml in water. Peptides were then visually inspected for any lack of solubility (Data File S1). […]
We had this library commercially synthesized and tested its ability to inhibit the growth of Acinetobacter baumannii AB5075, a clinically isolated Carbapenem Resistant Acinetobacter (CRA) pathogen. MICs were performed in MH as well as 100% FBS, which is likely more representative of the in vivo environment. […]

[2] = system: Single-donor human red blood cells; assay: Hemolysis assay; type: cell-based; conditions: hemolysis at 128 µg/ml, fold change relative to SySA-5
How it was run: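 Peptides at 300 μg/ml (SySA library) or 128 μg/ml (SySA-5 optimization library) were incubated in triplicate with washed single-donor RBCs (1 × 10^9 cells/ml) for 3 h at 37 °C. Supernatant A540 was background-normalized to PBS and expressed relative to 1% Triton X-100 (100% hemolysis).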

SMILES	AB5075 MIC FBS ([1]; replicate 1) [mg/L]	AB5075 MIC FBS ([1]; replicate 2) [mg/L]	AB5075 MIC FBS ([1]; replicate 3) [mg/L]	AB5075 MIC MH ([1]; replicate 1) [mg/L]	AB5075 MIC MH ([1]; replicate 2) [mg/L]	AB5075 MIC MH ([1]; replicate 3) [mg/L]	Fold Change Hemolysis [2]
CC(C)C[C@@H]1NC(=O)[C@H](CCCNC(=N)N)NC(=O)[C@H](C(C)C)NC(=O)[C@H](CCCNC(=N)N)NC(=O)[C@H](CC(C)C)NC(=O)[C@@H](N)CSSC[C@@H](C(=O)O)NC(=O)[C@H](C(C)C)NC(=O)[C@H](CCCNC(=N)N)NC(=O)[C@H](CC(C)C)NC(=O)[C@H](CCCNC(=N)N)NC(=O)[C@H](C(C)C)NC(=O)[C@H](CCCCN)NC(=O)[C@H](C(C)C)NC(=O)[C@@H]2CSSC[C@H](NC1=O)C(=O)N[C@@H](CCCNC(=N)N)C(=O)N[C@@H](CCCNC(=N)N)C(=O)N[C@@H](CCCNC(=N)N)C(=O)N[C@@H](CCCNC(=N)N)C(=O)N2 [SySA-5.4] (H-CLRVRLCRRRRCVKVRLRVC-OH; disulfide 1-20, 7-12 (inferred); N-terminus and C-terminus assumed)	64	64	64	4	8	8	2.9
CC(C)C[C@@H]1NC(=O)[C@H](CO)NC(=O)[C@H](C(C)C)NC(=O)[C@H](CCCCN)NC(=O)[C@H](C(C)C)NC(=O)[C@@H]2CSSC[C@H](NC(=O)[C@H](CC(C)C)NC(=O)[C@H](CCCNC(=N)N)NC(=O)[C@H](C(C)C)NC(=O)[C@H](CCCNC(=N)N)NC(=O)[C@@H](N)CSSC[C@@H](C(=O)O)NC(=O)[C@H](CCCNC(=N)N)NC1=O)C(=O)N[C@@H](CC(N)=O)C(=O)N[C@@H](CCCNC(=N)N)C(=O)N[C@@H](CCCNC(=N)N)C(=O)N[C@@H](CCCNC(=N)N)C(=O)N2 [SySA-5.8] (H-CRVRLCNRRRCVKVSLRC-OH; disulfide 1-18, 6-11 (inferred); N-terminus and C-terminus assumed)	>128	>128	>128	8	8	8	0.8
CC(C)C[C@@H]1NC(=O)[C@H](CO)NC(=O)[C@H](C(C)C)NC(=O)[C@@H]2CSSC[C@H](NC(=O)[C@H](CC(C)C)NC(=O)[C@H](CCCNC(=N)N)NC(=O)[C@H](C(C)C)NC(=O)[C@H](CCCNC(=N)N)NC(=O)[C@H](CC(C)C)NC(=O)[C@@H](N)CSSC[C@@H](C(=O)O)NC(=O)[C@H](C(C)C)NC(=O)[C@H](CCCNC(=N)N)NC1=O)C(=O)N[C@@H](CCCNC(=N)N)C(=O)N[C@@H](CCCNC(=N)N)C(=O)NCC(=O)N[C@@H](CCCNC(=N)N)C(=O)N2 [SySA-5.13] (H-CLRVRLCRRGRCVSLRVC-OH; disulfide 1-18, 7-12 (inferred); N-terminus and C-terminus assumed)	>128	>128	>128	32	8	16	3.2
CC(C)C[C@@H]1NC(=O)[C@H](CCCNC(=N)N)NC(=O)[C@@H]2CSSC[C@H](NC(=O)[C@H](CCCNC(=N)N)NC(=O)[C@H](C(C)C)NC(=O)[C@H](CCCNC(=N)N)NC(=O)[C@@H](N)CSSC[C@@H](C(=O)O)NC(=O)[C@H](CCCNC(=N)N)NC1=O)C(=O)N[C@@H](CCCNC(=N)N)C(=O)N[C@@H](CCCNC(=N)N)C(=O)N[C@@H](CCCNC(=N)N)C(=O)N[C@@H](CCCNC(=N)N)C(=O)N[C@@H](CCCNC(=N)N)C(=O)N[C@@H](CCCCN)C(=O)N2 [SySA-5.27] (H-CRVRCRRRRRKCRLRC-OH; disulfide 1-16, 5-12 (inferred); N-terminus and C-terminus assumed)	>128	>128	>128	128	128	128	0.6
